Some test systems named below: KM12 colon; SF-295 CNS; NCI-H460 lung; UACC-62 melanoma; SK-MEL-2 melanoma; RXF 393 renal; 786-0 renal; BT-549 breast; HOP-92 NSCLC; NCI/ADR-RES ovarian; SK-MEL-5 melanoma.
What all share (assay): NCI-60 cell line screen, 48 h

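How tested: cells in 96-well plates exposed to compound for 48 hours at five concentrations. TGI denotes the concentration required for complete inhibition of growth.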

Regarding `COc1cc2c(cc1OC)C(c1ccccc1CCCCl)=NCC2`, the TGI with KM12 colon, in the test on SF-295 CNS, with NCI-H460 lung, with UACC-62 melanoma, with SK-MEL-2 melanoma and in the test with RXF 393 renal was above 100 µM each time. The TGI was above 100 µM with 786-0 renal; above 100 µM in the test on BT-549 breast; above 100 µM in the test on HOP-92 NSCLC; above 100 µM in the test with NCI/ADR-RES ovarian; 47.2 µM in the test with SK-MEL-5 melanoma.
